What all share (format): cell-based
Experiment [1] concerns MV4; 11 (acute myeloid leukemia) cells. Briefly: Caspase Activity assay (Caspase-Glo 3/7), MV4; 11. The note with it: Homo sapiens, 11 cells, 6 h treatment, induction of apoptosis. The procedure:
(§1) Caspase Activity assay: This is a cell assay to measure the induction of apoptosis in MOLP-8 (multiple myeloma), KMS-12-BM (multiple myeloma), MV4; 11 (acute myeloid leukemia), and NCI-H23 (non-small cell lung cancer) cells after 6 h treatment with Mcl-1 inhibitors. On the first day, 3000 (MOLP-8, KMS-12-BM, MV4; 11) or 1250 (NCI-H23) cells/well were seeded with 50 μL of growth media (IMDM+10% FBS+2 mM L-Glu for MV4; 11 and RPMI-1640+10% FBS+2 mM L-Glu for all others) in 384-well white microplates, and incubated overnight (37° C., 5% C02, 80% RH). On the second day, the cells were treated with Compound I using an ECHO acoustic liquid handler (10 point half-log serial dilution, 31.5 μM top concentration, 0.3% final DMSO concentration). After 6 h incubation (37° C., 5% C02, 80% RH), 25 μL of Caspase-Glo 3/7 reagent (Promega) was added into each well, and plates were incubated at room temperature for 30 min protected from light. Luminescence was recorded using an Infinite M200 microplate reader (Tecan) with a 100 ms integration time.

The test system of experiment [2] is KMS-12-BM (multiple myeloma) cells. Briefly: Caspase Activity assay (Caspase-Glo 3/7), KMS-12-BM. The note with it: Homo sapiens; KMS-12-BM cells, 6 h treatment, induction of apoptosis. The procedure: as §1
Experiment [3] has as its system MOLP-8 (multiple myeloma) cells. Briefly: Caspase Activity assay (Caspase-Glo 3/7), MOLP-8. The conditions noted are these: Homo sapiens; MOLP-8 cells, 6 h treatment, induction of apoptosis. The protocol:
as §1

The test system of experiment [4] is NCI-H23 (non-small cell lung cancer) cells. Briefly: Caspase Activity assay (Caspase-Glo 3/7), NCI-H23. The conditions noted are these: Homo sapiens, 6 h treatment, induction of apoptosis. The procedure: as §1

As a reminder, the EC50 is the concentration at which the effect is half-maximal. A lower EC50 goes with an effect from little substance.

For `Cc1c2c(nn1C)CSCc1cc(n(C)n1)CSc1cc(c3ccccc3c1)OCCCc1c(C(=O)O)n(C)c3c-2c(Cl)ccc13` (atropisomer, axis not shown; (Ra)) [Compound I, (Ra)-(+)-17-chloro-5,13,14,22-tetramethyl-28-oxa-2,9-dithia-5,6,12,13,22-pentaazaheptacyclo[27.7.1.1^4,7.0^11,15.0^16,21.0^20,24.0^30,35]octatriaconta-1(37),4(38),6,11,14,16,18,20,23,29,31,33,35-tridecaene-23-carboxylic acid], the half-maximal effective concentration (EC50) in experiment [1] was determined as 20 nM; in experiment [2] it was 43 nM; in experiment [3], 30 nM; in experiment [4], 193 nM.

For the origin of these results see patent US11149024B2, “Synthesis of Mcl-1 inhibitor” (ASTRAZENECA AB, priority 2017, dated 2021).
